Measurements reported in ChEMBL document CHEMBL5325505, “Discovery of chiral 1,4-diarylazetidin-2-one-based hydroxamic acid derivatives as novel tubulin polymerization inhibitors with histone deacetylase inhibitory activity” (Bioorg Med Chem, 2023).
≈ marks a conversion by molar mass, not a printed value. Calls of active or inactive are those of the source. The calls are words filed in the database; no cut-off is given here.

Columns and labels:
[1] = tested on: BE(2)-C; assay: Inhibition of colony formation in human BE2C cells at 100 nM incubated for 36 hrs by gentian violet staining based assay relative to control; type: functional
[2] = tested on: BE(2)-C; assay: Induction of apoptosis in human BE2C cells assessed as late apoptotic cells at 25 nM incubated for 48 hrs by annexin V-FITC/PI staining based flow cytometry (reference value: 9.99 %); type: functional
[3] = tested on: BE(2)-C; assay: Induction of apoptosis in human BE2C cells assessed as viable cells at 100 nM incubated for 48 hrs by annexin V-FITC/PI staining based flow cytometry (reference value: 82.16 %); type: functional; settings: read-out: Activity
[4] = tested on: BE(2)-C; assay: Antitumor activity against human BE2C cells xenografted in nude mouse assessed as tumor growth inhibition at 25 mg/kg, ip treated for every 3 days relative to control; type: functional; settings: 72 h, time 3 day, read-out: TGI
[5] = Metabolic stability in human liver microsomes assessed as compound remaining incubated for 20 mins; type: ADME, Microsome; settings: microsomes, 20 min
[6] = tested on: BE(2)-C; assay: Inhibition of colony formation in human BE2C cells incubated for 36 hrs by gentian violet staining based assay; type: functional, cell-based; settings: dose 25-100 nM
[7] = tested on: BE(2)-C; assay: Induction of apoptosis in human BE2C cells assessed as necrotic cells at 25 nM incubated for 48 hrs by annexin V-FITC/PI staining based flow cytometry (reference value: 3.57 %); type: functional
[8] = tested on: BE(2)-C; assay: Induction of cell cycle arrest in human BE2C cells assessed as increase in cyclin B1 expression by Western blot analysis; type: functional, cell-based; settings: dose 12.5-50 nM
[9] = biological target: Tubulin (Homo sapiens) (UniProt P68371+Q9H4B7+P0DPH7+P68366+Q13509+Q71U36+P04350+Q3ZCM7+P07437+P68363+Q9BQE3+Q6PEY2+Q13885+Q9BVA1+Q9BUF5); assay: Inhibition of tubulin polymerization in human BE2C cells assessed as disruption of fibrous microtubule network at 25 to 100 nM incubated for 24 hrs by immunofluorescence based microscopy; type: cell-based; settings: dose 25-100 nM
[10] = tested on: BE(2)-C; assay: Induction of apoptosis in human BE2C cells assessed as necrotic cells at 100 nM incubated for 48 hrs by annexin V-FITC/PI staining based flow cytometry (reference value: 3.57 %); type: functional
[11] = tested on: BE(2)-C; assay: Upregulation of acetylated tubulin expression in human BE2C cells by Western blot analysis; type: functional, cell-based; settings: dose 25-100 nM
[12] = tested on: BE(2)-C; assay: Induction of apoptosis in human BE2C cells assessed as early apoptotic cells at 50 nM incubated for 48 hrs by annexin V-FITC/PI staining based flow cytometry (reference value: 4.28 %); type: functional
[13] = biological target: Tubulin (Sus scrofa) (UniProt P02554+P02550); assay: (§1) Inhibition of tubulin polymerization of pig brain by absorbance based assay; settings: dose 0.4-12 µM
[14] = biological target: Tubulin (Sus scrofa, UniProt P02554+P02550); assay: as §1
[15] = tested on: HCT-116; assay: Antiproliferative activity against human HCT-116 cells incubated for 48 hrs by MTT assay; type: functional, cell-based; settings: HCT-116, 48 h
[16] = Aqueous solubility of compound at 1 mg incubated for 10 mins; type: physicochemical
[17] = tested on: BE(2)-C; assay: Upregulation of acetylated H3 expression in human BE2C cells by Western blot analysis; type: functional, cell-based; settings: dose 25-100 nM
[18] = tested on: BE(2)-C; assay: Induction of apoptosis in human BE2C cells assessed as late apoptotic cells at 50 nM incubated for 48 hrs by annexin V-FITC/PI staining based flow cytometry (reference value: 9.99 %); type: functional
[19] = tested on: BE(2)-C; assay: Induction of apoptosis in human BE2C cells assessed as early apoptotic cells at 25 nM incubated for 48 hrs by annexin V-FITC/PI staining based flow cytometry (reference value: 4.28 %); type: functional
[20] = Toxicity in nude mouse xenografted with human BE2C cells assessed as adverse effect at 25 mg/kg, ip treated for every 3 days; type: organism-based; settings: in vivo, 72 h, time 3 day
[21] = tested on: BE(2)-C; assay: Induction of cell cycle arrest in human BE2C cells assessed as increase in phosphorylated H3 expression by Western blot analysis; type: functional, cell-based; settings: dose 12.5-50 nM
[22] = tested on: BE(2)-C; assay: Induction of apoptosis in human BE2C cells assessed as viable cells at 50 nM incubated for 48 hrs by annexin V-FITC/PI staining based flow cytometry (reference value: 82.16 %); type: functional; settings: read-out: Activity
[23] = Metabolic stability in human liver microsomes assessed as intrinsic clearance; type: ADME, Microsome; settings: read-out: CLH
[24] = Toxicity in nude mouse xenografted with human BE2C cells assessed as body weight loss at 25 mg/kg, ip treated for every 3 days; type: organism-based; settings: in vivo, 72 h, time 3 day
[25] = Metabolic stability in human liver microsomes assessed as compound remaining incubated for 10 mins; type: ADME, Microsome; settings: read-out: Stability
[26] = tested on: A549; assay: Antiproliferative activity against human A549 cells incubated for 48 hrs by MTT assay; type: functional, cell-based; settings: A549, 48 h
[27] = Metabolic stability in human liver microsomes assessed as compound remaining incubated for 5 mins; type: ADME, Microsome; settings: read-out: Stability
[28] = tested on: BE(2)-C; assay: Induction of apoptosis in human BE2C cells assessed as viable cells at 25 nM incubated for 48 hrs by annexin V-FITC/PI staining based flow cytometry (reference value: 82.16 %); type: functional; settings: read-out: Activity
[29] = tested on: BE(2)-C; assay: Upregulation of cleaved PARP-1 expression in human BE2C cells at 25 to 100 nM by Western blot analysis; type: functional, cell-based; settings: dose 25-100 nM
[30] = tested on: BE(2)-C; assay: Upregulation of Bax expression in human BE2C cells at 25 to 100 nM by Western blot analysis; type: functional, cell-based; settings: dose 25-100 nM
[31] = tested on: BE(2)-C; assay: Antiproliferative activity against human BE2C cells incubated for 48 hrs by MTT assay; type: functional, cell-based
[32] = tested on: BE(2)-C; assay: Upregulation of acetylated SMC3 expression in human BE2C cells by Western blot analysis; type: functional, cell-based; settings: dose 25-100 nM
[33] = tested on: BE(2)-C; assay: Induction of apoptosis in human BE2C cells assessed as necrotic cells at 50 nM incubated for 48 hrs by annexin V-FITC/PI staining based flow cytometry (reference value: 3.57 %); type: functional
[34] = Metabolic stability in human liver microsomes assessed as compound remaining incubated for 60 mins; type: ADME, Microsome; settings: liver microsomes, read-out: Stability
[35] = biological target: Histone deacetylase 1 (Homo sapiens, UniProt Q13547); assay: Inhibition of HDAC1 (unknown origin)
[36] = tested on: BE(2)-C; assay: Induction of apoptosis in human BE2C cells assessed as early apoptotic cells at 100 nM incubated for 48 hrs by annexin V-FITC/PI staining based flow cytometry (reference value: 4.28 %); type: functional
[37] = Metabolic stability in human liver microsomes assessed as half life; type: ADME, Microsome
[38] = biological target: T1, Histone deacetylase 8 (Homo sapiens, UniProt Q9BY41); assay: Inhibition of HDAC8 (unknown origin)
T1 sequence (Q9BY41 whole entry): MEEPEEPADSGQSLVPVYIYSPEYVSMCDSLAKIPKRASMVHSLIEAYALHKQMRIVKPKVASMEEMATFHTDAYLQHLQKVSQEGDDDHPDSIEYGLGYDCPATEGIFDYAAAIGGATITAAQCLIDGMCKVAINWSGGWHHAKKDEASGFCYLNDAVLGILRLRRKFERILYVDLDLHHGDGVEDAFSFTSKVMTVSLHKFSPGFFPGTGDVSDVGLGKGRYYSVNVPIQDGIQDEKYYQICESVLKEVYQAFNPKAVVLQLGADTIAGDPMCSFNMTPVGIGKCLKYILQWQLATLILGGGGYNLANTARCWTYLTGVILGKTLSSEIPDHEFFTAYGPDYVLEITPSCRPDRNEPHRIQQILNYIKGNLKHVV

Chain of Tubulin (Sus scrofa) (P02550 whole entry, looked up): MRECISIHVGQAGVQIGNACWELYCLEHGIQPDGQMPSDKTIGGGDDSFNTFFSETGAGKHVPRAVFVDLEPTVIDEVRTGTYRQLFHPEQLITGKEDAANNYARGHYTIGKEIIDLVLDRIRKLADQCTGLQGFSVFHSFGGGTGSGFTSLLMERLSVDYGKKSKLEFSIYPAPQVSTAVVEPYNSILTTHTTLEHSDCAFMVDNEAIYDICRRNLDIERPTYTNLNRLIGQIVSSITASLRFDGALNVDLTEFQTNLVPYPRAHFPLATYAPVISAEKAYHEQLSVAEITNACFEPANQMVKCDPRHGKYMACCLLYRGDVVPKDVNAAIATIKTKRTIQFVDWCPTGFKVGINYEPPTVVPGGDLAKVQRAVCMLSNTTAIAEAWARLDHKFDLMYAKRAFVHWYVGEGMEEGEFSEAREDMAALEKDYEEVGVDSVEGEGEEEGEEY
Chain of Tubulin (Sus scrofa) (P02554 whole entry, looked up): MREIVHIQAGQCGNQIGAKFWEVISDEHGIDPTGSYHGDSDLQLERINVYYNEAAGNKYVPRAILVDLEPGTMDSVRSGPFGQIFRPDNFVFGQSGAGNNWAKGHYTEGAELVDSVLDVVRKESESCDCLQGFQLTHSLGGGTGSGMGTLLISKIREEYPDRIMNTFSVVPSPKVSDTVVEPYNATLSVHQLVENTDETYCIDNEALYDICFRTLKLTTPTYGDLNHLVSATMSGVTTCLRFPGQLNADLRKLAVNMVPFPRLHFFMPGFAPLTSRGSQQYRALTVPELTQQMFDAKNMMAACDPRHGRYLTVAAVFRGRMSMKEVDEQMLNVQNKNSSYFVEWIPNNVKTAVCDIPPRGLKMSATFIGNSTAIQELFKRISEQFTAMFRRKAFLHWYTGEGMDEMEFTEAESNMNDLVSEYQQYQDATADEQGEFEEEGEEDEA
Chain of Histone deacetylase 1 (Q13547 whole entry): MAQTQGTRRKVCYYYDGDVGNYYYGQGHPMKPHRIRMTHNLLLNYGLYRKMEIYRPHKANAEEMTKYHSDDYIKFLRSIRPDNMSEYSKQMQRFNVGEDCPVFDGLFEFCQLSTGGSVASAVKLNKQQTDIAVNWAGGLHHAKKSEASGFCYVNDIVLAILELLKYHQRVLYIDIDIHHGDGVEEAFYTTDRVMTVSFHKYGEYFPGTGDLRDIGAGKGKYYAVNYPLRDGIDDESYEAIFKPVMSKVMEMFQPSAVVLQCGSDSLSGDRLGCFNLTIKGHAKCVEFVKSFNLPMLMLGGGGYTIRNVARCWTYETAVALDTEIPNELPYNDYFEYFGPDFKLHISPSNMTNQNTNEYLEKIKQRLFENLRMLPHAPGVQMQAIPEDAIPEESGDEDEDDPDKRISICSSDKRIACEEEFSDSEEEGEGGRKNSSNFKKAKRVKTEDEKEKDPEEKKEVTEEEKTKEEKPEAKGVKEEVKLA

Stability [5]: 61.3%
inhibition [9]: Active
inhibition [13]: Dose-Dependent Effect
IC50 [14]: 5.4 µM
IC50 [15]: 51 nM
solubility at 10 min [16]: 102 µg/mL (≈ 185 µM)
CLint scaled [23]: 18.1 mL/min/kg
remaining at 10 min [25]: 80%
IC50 [26]: 53 nM
remaining at 5 min [27]: 89.4%
remaining at 1 h [34]: 55.3%
IC50 [35]: 155 nM
t1/2 [37]: 68.8 min
IC50 [38]: 177 nM
Structure (SMILES): COc1ccc([C@H]2[C@H](COC(=O)c3ccc(C(=O)NO)cc3)C(=O)N2c2cc(OC)c(OC)c(OC)c2)cc1O
inhibition at 0.1 µM [1]: 100%
Activity [2]: 19.01%
viability at 0.1 µM [3]: 29.2%
inhibition in vivo at 25 mg/kg [4]: 67%
inhibition [6]: Active
Activity [7]: 7.06%
Activity [8]: Dose-Dependent Effect
Activity [10]: 9.54%
Activity [11]: Dose-Dependent Effect
Activity [12]: 12.23%
Activity [17]: Dose-Dependent Effect
Activity [18]: 29.09%
Activity [19]: 11.81%
Activity [20]: Non-Toxic
Activity [21]: Dose-Dependent Effect
viability at 0.05 µM [22]: 50.2%
Activity [24]: Non-Toxic
viability at 0.025 µM [28]: 62.1%
Activity [29]: Active
Activity [30]: Active
IC50 [31]: 17 nM
Activity [32]: Dose-Dependent Effect
Activity [33]: 8.53%
Activity [36]: 17.27%
